In US8648066B2 (Exelixis, Inc., priority 2009, dated 2014):

Target: mTOR/GbL/Raptor (mTORC1) (Homo sapiens, UniProt P42345)
Experiment: mTOR/GbL/Raptor (mTORC1) ELISA assay
Format: biochemical
Details: phosphorylation of 4E-BP1; 0.2 nM mTORC1, 10 μM ATP; read-out: IC50 in this assay (mTORC1 ELISA)
Summary of the method: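 Human mTORC1 (0.2 nM) phosphorylated 50 nM His-tagged 4E-BP1 with 10 µM ATP in HEPES pH 7.2 containing 10 mM MnCl2, 120 min at ambient temperature. Substrate was captured on Ni-chelate plates; phospho-4E-BP1 was detected by primary antibody and HRP secondary with luminescence.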

Compound	IC50 [nM]
Cc1nc2ccc(-c3ccc4c(c3)CN(c3ncnc(C)c3Cc3ccc(F)cc3)CCO4)cc2[nH]1 [Example 79, 4-{5-[(4-fluorophenyl)methyl]-6-methylpyrimidin-4-yl}-7-(2-methyl-1H-benzimidazol-6-yl)-2,3,4,5-tetrahydro-1,4-benzoxazepine]	≤ 10
CC1(C)CCc2ncnc(N3CCOc4ccc(-c5cnc6[nH]c(CF)nc6c5)cc4C3)c2C1 [Example 238, 4-(6,6-dimethyl-5,6,7,8-tetrahydroquinazolin-4-yl)-7-[2-(fluoromethyl)-3H-imidazo[4,5-b]pyridin-6-yl]-2,3,4,5-tetrahydro-1,4-benzoxazepine]	≤ 10
CCNc1nc2ccc(-c3ccc4c(c3)CN(c3cc(C)nc5ccccc35)CCO4)cc2[nH]1 [Example 246, N-ethyl-6-[4-(2-methylquinolin-4-yl)-2,3,4,5-tetrahydro-1,4-benzoxazepin-7-yl]-1H-benzimidazol-2-amine]	50 to 250
COc1ncc(-c2ccc3c(c2)CN(c2ncnc4c2CC(C)(C)CC4)CCO3)cc1NS(C)(=O)=O [Example 628, N-{5-[4-(6,6-dimethyl-5,6,7,8-tetrahydroquinazolin-4-yl)-2,3,4,5-tetrahydro-1,4-benzoxazepin-7-yl]-2-(methyloxy)pyridin-3-yl}methanesulfonamide]	10 to 50
CN1CCC(CNS(=O)(=O)c2cc(-c3ccc4c(c3)CN(c3ncnc5c3CC(C)(C)CC5)CCO4)cnc2N)CC1 [Example 381, 2-amino-5-[4-(6,6-dimethyl-5,6,7,8-tetrahydroquinazolin-4-yl)-2,3,4,5-tetrahydro-1,4-benzoxazepin-7-yl]-N-[(1-methylpiperidin-4-yl)methyl]pyridine-3-sulfonamide]	250 to 1000
CC1(C)CCc2ncnc(N3CCOc4ccc(-c5cnc(Cl)c(CS(C)(=O)=O)c5)cc4C3)c2C1 [Example 574, 7-{6-chloro-5-[(methylsulfonyl)methyl]pyridin-3-yl}-4-(6,6-dimethyl-5,6,7,8-tetrahydroquinazolin-4-yl)-2,3,4,5-tetrahydro-1,4-benzoxazepine]	1000 to 2000
Cc1nc2ccc(-c3ccc4c(c3)CN(c3cc(-c5ccccc5)nc5ccccc35)CCO4)cc2[nH]1 [Example 100, 7-(2-methyl-1H-benzimidazol-6-yl)-4-(2-phenylquinolin-4-yl)-2,3,4,5-tetrahydro-1,4-benzoxazepine]	250 to 1000
Cc1nc2ccc(-c3ccc4c(c3)CN(c3ncnc(C)c3Cc3cc(F)cc(Cl)c3)CCO4)cc2[nH]1 [Example 83, 4-{5-[(3-chloro-5-fluorophenyl)methyl]-6-methylpyrimidin-4-yl}-7-(2-methyl-1H-benzimidazol-6-yl)-2,3,4,5-tetrahydro-1,4-benzoxazepine]	≤ 10
Cc1nc2cc(-c3ccc4c(c3)CN(c3nc([C@H]5CCCN5)nc5c3CC(C)(C)CC5)CCO4)cnc2[nH]1 [Example 506, 4-{6,6-dimethyl-2-[(2R)-pyrrolidin-2-yl]-5,6,7,8-tetrahydroquinazolin-4-yl]-7-(2-methyl-3H-imidazo[4,5-b]pyridin-6-yl)-2,3,4,5-tetrahydro-1,4-benzoxazepine]	≤ 10
Cc1ccc(Cc2c(C)ncnc2N2CCOc3ccc(-c4ccc5nc(C)[nH]c5c4)cc3C2)cc1 [Example 78, 7-(2-methyl-1H-benzimidazol-6-yl)-4-{6-methyl-5-[(4-methylphenyl)methyl]pyrimidin-4-yl}-2,3,4,5-tetrahydro-1,4-benzoxazepine]	≤ 10
Cc1nc2ncc(-c3ccc4c(c3)CN(c3nc(CN5CCC(F)(F)C5)nc5c3CC(C)(C)CC5)CCO4)cc2[nH]1 [Example 503, 4-{2-[(3,3-difluoropyrrolidin-1-yl)methyl]-6,6-dimethyl-5,6,7,8-tetrahydroquinazolin-4-yl}-7-(2-methyl-1H-imidazo[4,5-b]pyridin-6-yl)-2,3,4,5-tetrahydro-1,4-benzoxazepine]	10 to 50
CN(C)S(=O)(=O)c1cc(-c2ccc3c(c2)CN(c2ncnc4c2CC(C)(C)CC4)CCO3)cnc1N [Example 380, 2-amino-5-[4-(6,6-dimethyl-5,6,7,8-tetrahydroquinazolin-4-yl)-2,3,4,5-tetrahydro-1,4-benzoxazepin-7-yl]-N,N-dimethylpyridine-3-sulfonamide]	10 to 50
Cc1nc2ncc(-c3ccc4c(c3)CN(c3nc(CN)nc5c3CC(C)(C)CC5)CCO4)cc2[nH]1 [Example 352, 1-{6,6-dimethyl-4-[7-(2-methyl-1H-imidazo[4,5-b]pyridin-6-yl)-2,3-dihydro-1,4-benzoxazepin-4(5H)-yl]-5,6,7,8-tetrahydroquinazolin-2-yl}methanamine]	≤ 10
Cc1nc(N)nc(N2CCOc3ccc(-c4cnc5[nH]cnc5c4)cc3C2)c1Cc1ccc(F)cc1 [Example 689, 5-[(4-fluorophenyl)methyl]-4-[7-(3H-imidazo[4,5-b]pyridin-6-yl)-2,3-dihydro-1,4-benzoxazepin-4(5H)-yl]-6-methylpyrimidin-2-amine]	≤ 10
CC1(C)CCc2ncnc(N3CCOc4ccc(-c5cnc(N)c(S(=O)(=O)N6CCC(O)C6)c5)cc4C3)c2C1 (stereo not shown) [Example 318]	10 to 50
Cc1nc2ncc(-c3ccc4c(c3)CN(c3ncnc5c3CCCC5(C)C)CCO4)cc2[nH]1 [Example 485, 4-(8,8-dimethyl-5,6,7,8-tetrahydroquinazolin-4-yl)-7-(2-methyl-1H-imidazo[4,5-b]pyridin-6-yl)-2,3,4,5-tetrahydro-1,4-benzoxazepine]	10 to 50

Compound	IC50 [nM]
Cc1nc(C)c(C(C)C)c(N2CCOc3ccc(-c4cnc5nc(C)[nH]c5c4)cc3C2)n1 [Example 491, 4-[2,6-dimethyl-5-(1-methylethyl)pyrimidin-4-yl]-7-(2-methyl-1H-imidazo[4,5-b]pyridin-6-yl)-2,3,4,5-tetrahydro-1,4-benzoxazepine]	≤ 10
CCNc1nc2ccc(-c3ccc4c(c3)CN(c3ncnc5cc(OC)c(OC)cc35)CCO4)cc2[nH]1 [Example 259, 6-{4-[6,7-bis(methyloxy)quinazolin-4-yl]-2,3,4,5-tetrahydro-1,4-benzoxazepin-7-yl}-N-ethyl-1H-benzimidazol-2-amine]	50 to 250
CCNc1nc2ccc(-c3ccc4c(c3)CN(c3ncnc5c3CC(C)(C)CC5)CCO4)cc2[nH]1 [Example 255, 6-[4-(6,6-dimethyl-5,6,7,8-tetrahydroquinazolin-4-yl)-2,3,4,5-tetrahydro-1,4-benzoxazepin-7-yl]-N-ethyl-1H-benzimidazol-2-amine]	≤ 10
CC1(C)CCc2ncnc(N3CCOc4ccc(-c5ccc(Cl)c(NS(C)(=O)=O)c5)cc4C3)c2C1 [Example 621]	250 to 1000
CN(C)C(=O)c1cccc(-c2ccc3c(c2)CN(c2ccnc4ccccc24)CCO3)c1 [Example 134, N,N-dimethyl-3-(4-quinolin-4-yl-2,3,4,5-tetrahydro-1,4-benzoxazepin-7-yl)benzamide]	≥ 2000
CNCCN(C)c1ncnc(N2CCOc3ccc(-c4cnc5nc(C6CC6)[nH]c5c4)cc3C2)c1C [Example 635, N-{6-[7-(2-cyclopropyl-1H-imidazo[4,5-b]pyridin-6-yl)-2,3-dihydro-1,4-benzoxazepin-4(5H)-yl]-5-methylpyrimidin-4-yl}-N,N′-dimethylethane-1,2-diamine]	250 to 1000
Cc1nc2ccc(-c3ccc4c(c3)CN(c3ncnc5scc(C)c35)CCO4)cc2[nH]1 [Example 47, 7-(2-methyl-1H-benzimidazol-6-yl)-4-(5-methylthieno[2,3-d]pyrimidin-4-yl)-2,3,4,5-tetrahydro-1,4-benzoxazepine]	≥ 2000
c1ccc2c(N3CCOc4ccc(-c5ccc6nc(C7CCCCN7)[nH]c6c5)cc4C3)ccnc2c1 (stereo not shown) [Example 202, 7-(2-piperidin-2-yl-1H-benzimidazol-6-yl)-4-quinolin-4-yl-2,3,4,5-tetrahydro-1,4-benzoxazepine]	250 to 1000
CCc1ncnc(N2CCOc3ccc(-c4ccc5nc(C)[nH]c5c4)cc3C2)c1C [Example 56, 4-(6-ethyl-5-methylpyrimidin-4-yl)-7-(2-methyl-1H-benzimidazol-6-yl)-2,3,4,5-tetrahydro-1,4-benzoxazepine]	250 to 1000
COc1ccc2c(N3CCOc4ccc(-c5cnc6nc(N)[nH]c6c5)cc4C3)nc(C)nc2c1 [Example 289, 6-{4-[2-methyl-7-(methyloxy)quinazolin-4-yl]-2,3,4,5-tetrahydro-1,4-benzoxazepin-7-yl}-1H-imidazo[4,5-b]pyridin-2-amine]	10 to 50
COc1ccc2c(N3CCOc4ccc(-c5ccc(N)nc5)cc4C3)nc(C)nc2c1 [Example 273, 5-{4-[2-methyl-7-(methyloxy)quinazolin-4-yl]-2,3,4,5-tetrahydro-1,4-benzoxazepin-7-yl}pyridin-2-amine]	250 to 1000
Cc1nc2ccc(-c3ccc4c(c3)CN(c3nc(CO)nc(C)c3C(C)C)CCO4)cc2[nH]1 [Example 687, {4-methyl-6-[7-(2-methyl-1H-benzimidazol-5-yl)-2,3-dihydro-1,4-benzoxazepin-4(5H)-yl]-5-(1-methylethyl)pyrimidin-2-yl}methanol]	≤ 10
COC(=O)Nc1nc2ncc(-c3ccc4c(c3)CN(c3nc(CN(C)C)nc5c3CC(C)(C)CC5)CCO4)cc2[nH]1 [Example 580]	50 to 250
COC(=O)Nc1nc2ccc(-c3ccc4c(c3)CN(c3ncnc5[nH]ccc35)CCO4)cc2[nH]1 [Example 110, methyl {6-[4-(7H-pyrrolo[2,3-d]pyrimidin-4-yl)-2,3,4,5-tetrahydro-1,4-benzoxazepin-7-yl]-1H-benzimidazol-2-yl}carbamate]	≥ 2000
CC1(C)CCc2ncnc(N3CCOc4ccc(-c5cnc(N)c(S(=O)(=O)NC[C@@H]6CCCN6)c5)cc4C3)c2C1 [Example 383, 2-amino-5-[4-(6,6-dimethyl-5,6,7,8-tetrahydroquinazolin-4-yl)-2,3,4,5-tetrahydro-1,4-benzoxazepin-7-yl]-N-[(2S)-pyrrolidin-2-ylmethyl]pyridine-3-sulfonamide]	50 to 250
